pIC50: −log10 of the molar value.

In general, pIC50 refers to −log10 of the IC50, conventionally taken in molar units.

The experiment addresses T1, PARP7 (Homo sapiens, UniProt Q7Z3E1).
T1 sequence (Q7Z3E1 1-657): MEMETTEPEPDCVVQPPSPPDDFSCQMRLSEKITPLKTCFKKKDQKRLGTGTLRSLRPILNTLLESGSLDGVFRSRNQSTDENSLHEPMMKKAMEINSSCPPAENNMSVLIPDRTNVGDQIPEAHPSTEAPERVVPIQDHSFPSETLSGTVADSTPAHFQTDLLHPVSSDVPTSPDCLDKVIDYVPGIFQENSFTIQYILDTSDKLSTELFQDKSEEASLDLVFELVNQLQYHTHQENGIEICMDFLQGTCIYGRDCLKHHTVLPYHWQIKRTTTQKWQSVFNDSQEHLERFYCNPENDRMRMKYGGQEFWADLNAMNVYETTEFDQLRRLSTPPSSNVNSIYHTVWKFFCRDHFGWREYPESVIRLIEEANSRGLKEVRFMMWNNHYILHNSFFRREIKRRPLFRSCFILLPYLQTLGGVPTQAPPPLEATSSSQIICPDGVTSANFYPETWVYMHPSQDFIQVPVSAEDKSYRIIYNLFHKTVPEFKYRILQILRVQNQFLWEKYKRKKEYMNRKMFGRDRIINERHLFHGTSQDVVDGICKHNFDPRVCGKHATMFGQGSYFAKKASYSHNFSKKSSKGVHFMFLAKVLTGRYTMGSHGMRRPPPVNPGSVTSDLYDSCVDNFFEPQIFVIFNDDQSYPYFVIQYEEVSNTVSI
The experiment in a line: PARP7 TR-FRET assay (binding, displacement of biotinylated Probe A). As to conditions: 6 nM PARP7, 2 nM Probe A, 25° C., 30 min. An outline of the steps:
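Compound displacement of biotinylated Probe A (2 nM) from PARP7 (6 nM) measured by TR-FRET in HEPES pH 8.0 buffer, 30 min at 25° C. Detection used ULight-anti 6xHis (4 nM) plus Eu-streptavidin (0.25 nM) for 30 min, reading the 665/615 nm ratio. % inhibition was taken against DMSO and no-enzyme wells, and IC50 from a Hill fit.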
In turn, `N#Cc1cnc(N2CCN(C(=O)CC3CN(c4cc(C(F)(F)F)c(=O)[nH]n4)c4cc(F)ccc4O3)CC2)nc1` (single isomer, unassigned) [Compound 264] showed a pIC50 of over 7.00. Next, `CCOC1CN(c2c(Oc3ccnc(C(=O)N4CCN(c5ncc(C(F)(F)F)cn5)CC4)c3)n[nH]c(=O)c2C(F)(F)F)C1` [Compound 320]: over 7.00.

Regarding `O=C(CC1CN(c2n[nH]c(=O)c3ccc(C4CC4)cc23)CCO1)N1CCN(c2ncc(C(F)(F)F)cn2)CC1` (single isomer, unassigned) [Compound 103], the pIC50 is over 7.00.

Regarding `O=C(CCO[C@H]1CCNc2c1n[nH]c(=O)c2C(F)(F)F)N1CCN(c2ncc(C(F)(F)F)cn2)CC1` (single isomer, unassigned) [Compound 7], the pIC50 was 6.00 to 7.00.

Molecule `O=C(CC1CN(c2cc(C(F)(F)F)c(=O)[nH]n2)c2ccccc2O1)N1CCn2c(nnc2C(F)(F)F)C1` (single isomer, unassigned) [Compound 289] showed a pIC50 of under 6.00. With `C[C@H]1CN(c2n[nH]c(=O)c3c(F)cccc23)C[C@@H](CC(=O)N2CCN(c3ncc(C(F)(F)F)cn3)CC2)O1` (stereo in doubt) [Compound 95] the figure was over 7.00; with `O=C(c1cccc(Oc2n[nH]c(=O)c(C(F)(F)F)c2N2CC(C3CC3)C2)c1)N1CCN(c2ncc(C(F)(F)F)cn2)CC1` [Compound 180], over 7.00.

`O=C(CC1CN(c2cc(C(F)(F)F)c(=O)[nH]n2)c2ccccc2O1)N1CCN(c2ccc(Cl)cn2)CC1` (single isomer, unassigned) [Compound 260] gave a pIC50 of 6.00 to 7.00. As for `Cc1c(Oc2cc(C(=O)N3CCN(c4ncc(C(F)(F)F)cn4)CC3)ccc2C2CC2)n[nH]c(=O)c1C(F)(F)F` [Compound 64], the pIC50 was over 7.00. `O=C(c1cncc(Oc2n[nH]c(=O)c(C(F)(F)F)c2N2CC(C3CC3)C2)c1)N1CCN(c2ncc(C(F)(F)F)cn2)CC1` [Compound 278] gave a pIC50 of over 7.00. Turning to `O=C(c1cccc(Oc2n[nH]c(=O)c(C(F)(F)F)c2OCC2CCOCC2)c1)N1CCN(c2ncc(C(F)(F)F)cn2)CC1` [Compound 217], the negative logarithm of the IC50 (pIC50) was over 7.00. `O=C(CC1CN(c2cc(C(F)(F)F)c(=O)[nH]n2)CCO1)N1CCN(c2ncc(C(F)(F)F)cn2)CC1` (single isomer, unassigned) [Compound 31] showed a pIC50 of over 7.00. The molecule `O=C(COC1CCOc2c1n[nH]c(=O)c2Br)N1CCN(c2ncc(C(F)(F)F)cn2)CC1` (single isomer, unassigned) [Compound 9] showed a pIC50 of under 6.00. `O=C(CC1CN(c2n[nH]c(=O)c3cc(Cl)ccc23)CCO1)N1CCN(c2ncc(C(F)(F)F)cn2)CC1` (single isomer, unassigned) [Compound 99] gave a pIC50 of over 7.00. Next, `O=C([C@H]1CN(c2cc(C(F)(F)F)c(=O)[nH]n2)CCO1)N1CCN(c2ncc(C(F)(F)F)cn2)CC1` [Compound 33]: 6.00 to 7.00; `CN(C)c1c(Oc2cccc(C(=O)N3CCN(c4ncc(C(F)(F)F)cn4)CC3)c2)n[nH]c(=O)c1C(F)(F)F` [Compound 83]: over 7.00.

As to `C#Cc1cc(N2CCOCC2C(=O)N2CCN(c3ncc(C(F)(F)F)cn3)CC2)n[nH]c1=O` (stereo not shown) [Compound 46], the pIC50 is under 6.00.

Take `CC1(C#N)CN(c2c(Oc3cccc(C(=O)N4CCN(c5ncc(C(F)(F)F)cn5)CC4)c3)n[nH]c(=O)c2C(F)(F)F)C1` [Compound 213]: the pIC50 was over 7.00. In the case of `C#Cc1cnc(N2CCN(C(=O)c3cccc(Oc4n[nH]c(=O)c(C(F)(F)F)c4N4CC5(COC5)C4)c3)CC2)nc1` [Compound 302], the pIC50 was over 7.00.

`O=C([C@@H]1COCCN1c1cc(C(F)(F)F)c(=O)[nH]n1)N1CCN(c2ncc(C(F)(F)F)cn2)CC1` [Compound 36] had a pIC50 of over 7.00.

For the molecule `N#Cc1ccc(N2CCN(C(=O)c3cncc(Oc4n[nH]c(=O)c(C(F)(F)F)c4N4CC5(C4)CC(F)(F)C5)c3)CC2)nc1` [Compound 237], the pIC50 was over 7.00. On to `COCC(=O)Nc1ccc2c(c1)N(c1cc(C(F)(F)F)c(=O)[nH]n1)CC(CC(=O)N1CCN(c3ncc(C(F)(F)F)cn3)CC1)O2` (single isomer, unassigned) [Compound 284], for which the pIC50 was 6.00 to 7.00.

`O=C(CC1CN(c2cc(C(F)(F)F)c(=O)[nH]n2)c2ccccc2O1)N1CCN(c2nnc(C(F)(F)F)s2)CC1` (single isomer, unassigned) [Compound 287]: the negative-log IC50 (pIC50) was 6.00 to 7.00. The molecule `O=C(c1cccc(Oc2n[nH]c(=O)c(C(F)(F)F)c2N2CC3(CCC3)C2)c1)N1CCn2c(nnc2C(F)(F)F)C1` [Compound 178] had a pIC50 of 6.00 to 7.00. Next, `N#Cc1ccc(N2CCN(C(=O)CC3CN(c4cc(C(F)(F)F)c(=O)[nH]n4)c4cc(C(F)F)ccc4O3)CC2)nc1` (single isomer, unassigned) [Compound 327]: over 7.00.

In turn, `N#Cc1ccc(N2CCN(C(=O)c3cccc(Oc4n[nH]c(=O)c(C(F)(F)F)c4N4CC5(C4)CC(F)(F)C5)c3)CC2)nc1` [Compound 333] gave a pIC50 of over 7.00. `O=C(c1cccc(Oc2n[nH]c(=O)c(C(F)(F)F)c2N2CC3(CCC3)C2)c1)N1CCN(c2ccc(C3CC3)cn2)CC1` [Compound 177]: the pIC50 was over 7.00. The molecule `O=C(c1cccc(Oc2n[nH]c(=O)c(C(F)(F)F)c2N2CC3(COC3)C2)c1)N1CCN(c2ncc(C(F)(F)F)cn2)CC1` [Compound 165] gave a pIC50 of over 7.00. Consider `O=C(CC1CN(c2cc(C(F)(F)F)c(=O)[nH]n2)CCC1(F)F)N1CCN(c2ncc(C(F)(F)F)cn2)CC1` (single isomer, unassigned) [Compound 108], for which the pIC50 is over 7.00. Next, `O=C(CC1CN(c2n[nH]c(=O)c3cc(F)ccc23)CCO1)N1CCN(c2ncc(C(F)(F)F)cn2)CC1` (single isomer, unassigned) [Compound 49]: 6.00 to 7.00.

On to `O=C(CC1CN(c2n[nH]c(=O)c3c(F)cccc23)CCO1)N1CCN(c2ncc(C(F)(F)F)cn2)CC1` (single isomer, unassigned) [Compound 109], for which the pIC50 was over 7.00. Regarding `C[C@@H]1CN(C(=O)CC2CN(c3cc(C(F)(F)F)c(=O)[nH]n3)c3cc(C#N)ccc3O2)CCN1c1ncc(Cl)cn1` (single isomer, unassigned) [Compound 141], the pIC50 is over 7.00. Molecule `CS(=O)(=O)c1ccc2c(c1)N(c1cc(C(F)(F)F)c(=O)[nH]n1)CC(CC(=O)N1CCN(c3ncc(C(F)(F)F)cn3)CC1)O2` (single isomer, unassigned) [Compound 205] gave a pIC50 of over 7.00.

`C[C@@H]1CN(C(=O)CC2CN(c3cc(C(F)(F)F)c(=O)[nH]n3)c3cc(C#N)ccc3O2)CCN1c1ncc(C(F)(F)F)cn1` (single isomer, unassigned) [Compound 152] showed a pIC50 of over 7.00. The molecule `CC1CN(c2c(Oc3cccc(C(=O)N4CCN(c5ncc(C(F)(F)F)cn5)CC4)c3)n[nH]c(=O)c2C(F)(F)F)C1` [Compound 181] showed a pIC50 of over 7.00. In turn, `C#CC1CN(c2c(Oc3cccc(C(=O)N4CCN(c5ncc(C(F)(F)F)cn5)CC4)c3)n[nH]c(=O)c2C(F)(F)F)C1` [Compound 185] had a negative logarithm of the IC50 (pIC50) of over 7.00. As to `O=C(c1cccc(Oc2n[nH]c(=O)c(C(F)(F)F)c2N2CC3CC3C2)c1)N1CCN(c2ncc(C(F)(F)F)cn2)CC1` (stereo not shown) [Compound 68], the pIC50 was over 7.00.

Turning to `O=C(CC1CN(c2cc(C(F)(F)F)c(=O)[nH]n2)c2cc(Cl)ccc2O1)N1CCN(c2cnc(C(F)(F)F)cn2)CC1` (single isomer, unassigned) [Compound 143], the pIC50 is over 7.00. `N#Cc1ccc(N2CCN(C(=O)c3cccc(Oc4n[nH]c(=O)c(C(F)(F)F)c4N4CC5(CCC5)C4)c3)CC2)nc1` [Compound 161] gave a pIC50 of over 7.00. As for `C#Cc1ccc2c(N3CCOC(CC(=O)N4CCN(c5ncc(C(F)(F)F)cn5)CC4)C3)n[nH]c(=O)c2c1` (single isomer, unassigned) [Compound 196], the pIC50 was 6.00 to 7.00. With `N#Cc1cnc(N2CCN(C(=O)CC3CN(c4cc(C(F)(F)F)c(=O)[nH]n4)c4cc(Cl)ccc4O3)CC2)nc1` (single isomer, unassigned) [Compound 293], the pIC50 is over 7.00. With `O=C(CC1CN(c2cc(C(F)(F)F)c(=O)[nH]n2)c2cc(F)ccc2O1)N1CCN(c2ncc(OC(F)(F)F)cn2)CC1` (single isomer, unassigned) [Compound 312] the figure was 6.00 to 7.00; with `CC(C)C1CN(c2c(Oc3cccc(C(=O)N4CCN(c5ncc(C(F)(F)F)cn5)CC4)c3)n[nH]c(=O)c2C(F)(F)F)C1` [Compound 183], over 7.00; with `Cc1ccc2c(=O)[nH]nc(N3CCOC(CC(=O)N4CCN(c5ncc(C(F)(F)F)cn5)CC4)C3)c2c1` (single isomer, unassigned) [Compound 102], over 7.00. `O=C(OC[C@@H]1CCCN1c1cc(C(F)(F)F)c(=O)[nH]n1)N1CCN(c2ncc(C(F)(F)F)cn2)CC1` [Compound 87] had a pIC50 of over 7.00. The molecule `O=C(CC1CN(c2n[nH]c(=O)c3c(Cl)cccc23)CCO1)N1CCN(c2ncc(C(F)(F)F)cn2)CC1` (single isomer, unassigned) [Compound 93] showed a pIC50 of over 7.00.

The values above are taken from patent US20240343727A1, “PYRIDAZINONE OR PYRIDINONE COMPOUNDS, PREPARATION METHODS AND USES THEREOF” (InventisBio Co., Ltd., priority 2021, published 2024).
